Tests used:
Runx2 = Runx2 expression by SDS-PAGE and Western blotting; format: cell-based; details: day 21
Experimental: FIG. 4. […] It is thought that Runx2 serves as a gatekeeper to promote osteogenesis, thus it is one of the most important marker for osteogenesis. In the control panel, consistent with the reported data in literature, Runx2 was detected in the presence of osteogenic medium but remain undetectable level without the osteogenic medium. […] The blot of tubulin serves as loading control for each sample loading.
Differentiation: Osteogenic protein markers were analyzed SDS-PAGE and Western Blotting. Protein samples were resolved by SDS-PAGE on precast 12.5% […] gels (Bio-Rad, Hercules, Calif.) and transferred electrophoretically onto polyvinylidene difluoride membranes according to the manufacturer's instructions (Bio-Rad, Hercules, Calif.). Membranes were blocked with skim milk and then probed with respective antibodies. […]
MC3T3E1 cells expressed classic markers for the osteoblastic phenotype in the presence of 6-Bnz-cAMP in the absence of osteogenic medium in samples collected at day 21. The level of Runx2, a bone-specific transcription factor which increases bone formation through the stimulation of bone-marker gene transcription in osteoblasts, was detected by immunoblotting (FIG. 4). In the control panel, Runx2 was detected in the presence of osteogenic medium but remain undetectable level without the osteogenic medium. […]

MC3T3-E1 cells = test: ALP activity assay; format: cell-based; details: 100 μM
Experimental: FIG. 5. 6-Bnz-cAMP increases ALP activities at day 7 and 14. […] To facilitate the comparison of different experimental settings, the ALP activity of the cells cultured in the regular growth medium at Day 7 was set to one relative unit.
MC3T3-E1 cells were grown in mineralization media. 6-Bnz-cAMP was added to the culture medium to a final concentration of 100 μM for experiments; mineralization media only was used for positive controls. Osteoblast-associated markers were quantitated at days 7 and 14. Markers include increased alkaline phosphatas (ALP) activity (FIG. 5) and calcium precipitation in MC3T3-E1 cells (FIG. 6). 6-Bnz-cAMP toxicity was assessed at days 7, 14, and 21 in cells treated with 100 micromolar 6-Bnz-cAMP compared to untreated cells. Trypan blue staining was used to visualize cells (FIG. 7).
ALP activities were measured using ALP assay kit according to the manufacturer's instructions (Bio-Rad, Hercules, Calif.). Briefly, at day 7 and 14, cells were collected and washed 4 times with PBS prior to the ALP activity assay. Cells were then lysed with 0.1% TX-100. Cell lysates were collected and mixed with the ALP substrate solution for 1 h at 37° C. incubation. The colorimetric change due to the presence of ALP activity was measured by a spectrophotometric plate reader at 405 nm. The absorbance values were then normalized to cellular DNA.

O=C(Nc1ncnc2c1ncn2C1O[C@@H]2COP(=O)([O-])O[C@H]2[C@H]1O)c1ccccc1.[Na+] (stereo partly shown) [6-Bnz-cAMP, N^6-Benzoyladenosine-3′,5′-cyclic monophosphate]
expression of Runx2 (Runx2; 100 μM, absence of osteogenic medium): induces the expression of Runx2 | expression of Runx2 (Runx2; osteogenic medium together with 6-Bnz-cAMP, vs 6-Bnz-cAMP alone): further enhanced the expression of Runx2 | ALP activity (MC3T3-E1 cells; day 7): induced | ALP activity (MC3T3-E1 cells; day 14): further increased

From US20110217337A1, “BIOACTIVE AGENT FOR BONE TISSUE ENGINEERING” (UNIVERSITY OF CONNECTICUT, priority 2010, published 2011)
